Common to all, as to type: in vivo
Experiment [1] deals with APOE*3Leiden transgenic mice. Briefly: Plasma triglycerides in APOE*3Leiden transgenic mice fed a Western-type diet with sphingolipid. From the text: (§1) In this experiment mice were used in which the human gene for the so-called Leiden mutation of apolipoprotein E3 (APOE*3Leiden transgenic mice) had been incorporated by transgenesis. Because of this transgenic change, these so-called APOE*3Leiden mice have a humanized lipoprotein profile, and are extremely suitable for studying the effect of compounds on lipoprotein metabolism (Van Vlijmen et. al. 1996. J Clin Invest. 97:1184-1192; Van Vlijmen et. al. 1998. Arzneimittelforschung 1998; 48:396-402.).
(§2) The study design was as follows: female mice were fed for 5 weeks “Western-type” diet (Nishina et al. 1990. J Lipid Res. 31:859-869) containing 0.25% (w/w) cholesterol. Specifically, the diet contained 15% (all w/w) cocoabutter, 0.25% cholesterol, 1% corn oil, 40.5% sucrose, 20% acid casein, 10% corn starch and 5.95% cellulose, as major ingredients. This diet increased their plasma cholesterol level to about 15 mmol/L. Subsequently, the mice were randomized, on the basis of their plasma cholesterol level, into groups of six mice each. These groups were given the same diet, but containing in addition: • Group 1 no addition • Group 2 0.1% (w/w) phytosphingosine • Group 3 0.1% (w/w) sphingosine • Group 4 0.1% (w/w) sphinganine • Group 5 0.1% (w/w) cerebroside • Group 6 0.1% (w/w) ceramide IV • Group 7 0.1% (w/w) sphingomyelin
(§3) The phytosphingosine, ceramide IV and cerebroside (=glucosyl ceramide) were obtained from Cosmoferm BV (Delft, The Netherlands). Sphingomyelin from egg was obtained from Larodan Fine Chemicals AB (Stockholm, Sweden) and sphingosine and sphinganine were obtained from Avanti Polar Lipids Inc, (Alabaster, Ala., USA). During the experiment, body weight and food intake were monitored. At three weeks after the dietary change, blood was taken to determine plasma cholesterol and triglyceride levels. Also, the plasma lipoprotein pattern was determined group wise in pooled samples by fplc. Then, the concentration of the additives was changed to 0.2%, and feeding continued for another 3 weeks. At three weeks after this dietary change, blood was again taken to determine plasma cholesterol and triglyceride levels, and the plasma lipoprotein pattern was determined group wise in pooled samples by fplc. The dietary additives were then changed to 0.4% (w/w), and the same cycle of feeding and blood sampling was executed.
(§4) In a separate experiment, groups of six APOE*3Leiden mice were fed the above-described Western-type diet, containing 1.0% (w/w) of phytosphingosine. At the end of the treatment period, plasma cholesterol was reduced with 58% (p=0.007) and plasma triglyceride was reduced with 64% (p=0.01) with respect to the control group.

Experiment [2] deals with APOE*3Leiden transgenic mice. Briefly: Plasma cholesterol in APOE*3Leiden transgenic mice fed a Western-type diet with sphingolipid.
From the text: as §1, §2, §3, §4

The subject of experiment [3] is APOE*3Leiden transgenic mice. Briefly: Plasma lipoprotein distribution pattern by fplc in pooled samples. The conditions noted are these: separate experiment, 1.0% (w/w) in diet.
From the text: as §3, with “executed. […] In a separate experiment, groups of six APOE*3Leiden mice were fed the above-described Western-type diet, containing 1.0% (w/w) of phytosphingosine. At the end of the treatment period, plasma cholesterol was reduced with 58% (p=0.007) and plasma triglyceride was reduced with 64% (p=0.01) with respect to the control group.” for “executed.”

[4] abbreviates: t = 0, baseline after 5 weeks Western-type diet, before addition of sphingolipid, female mice, group mean.
Setting [5] is: t = 3 (weeks), 0.1% (w/w) in diet.
[6] abbreviates: t = 6 (weeks), 0.2% in diet for the last 3 weeks.
[7] abbreviates: t = 9 (weeks), 0.4% (w/w) in diet for the last 3 weeks.

Turning to ceramide IV, the Plasma triglyceride levels in experiment [1] (setting [4]) turned out to be 2.3 mmol/L; in experiment [1] (setting [5]) it was 2.0 mmol/L; in experiment [1] (setting [6]), 1.1 mmol/L; in experiment [1] (setting [7]) it was 1.4 mmol/L. Moreover, the “Plasma triglyceride reduction relative to control” value in experiment [1] (t = 3 (weeks), 0.1% in diet) was determined as 8.5%; in experiment [1] (t = 6 (weeks), 0.2% in diet) it was 49.1%; in experiment [1] (t = 9 (weeks), 0.4% in diet) it was 38.4%. Besides, the Plasma cholesterol levels in experiment [2] (setting [4]) is 15.6 mmol/L; in experiment [2] (setting [5]), 14.8 mmol/L; in experiment [2] (setting [6]), 12.6 mmol/L; in experiment [2] (setting [7]), 11.7 mmol/L. In addition, the “Plasma cholesterol reduction relative to control” value in experiment [2] (t = 3 (weeks), 0.1% in diet) is 1.5%; in experiment [2] (t = 6 (weeks), 0.2% in diet) it was 19.4%; in experiment [2] (t = 9 (weeks), 0.4% in diet) it was 29.9%.

Consider `CCCCCCCCCCCCCC[C@@H](O)[C@@H](O)[C@@H](N)CO` [PHYTOSPHINGOSINE, phytosphingosine], for which, in experiment [3], the “lipoprotein fractions accounting for the decrease of cholesterol and triglycerides (fplc)” value is “fully due to a decrease in VLDL and IDL/LDL fractions”. The “plasma triglyceride reduced with respect to the control group” value in experiment [1] (separate experiment, 1.0% (w/w) in Western-type diet, end of treatment period, p=0.01) is listed as 64%. For the same compound, the Plasma triglyceride levels in experiment [1] (setting [4]) turned out to be 2.1 mmol/L; in experiment [1] (setting [5]), 1.7 mmol/L; in experiment [1] (setting [6]) it was 1.2 mmol/L; in experiment [1] (setting [7]), 1.5 mmol/L. In addition, the “Plasma triglyceride reduction relative to control” value in experiment [1] (t = 3 (weeks), 0.1% in diet) is listed as 22.9%; in experiment [1] (t = 6 (weeks), 0.2% in diet), 39.8%; in experiment [1] (t = 9 (weeks), 0.4% in diet), 34.8%. Besides, in experiment [2] (separate experiment, 1.0% (w/w) in Western-type diet, end of treatment period, p=0.007), the “plasma cholesterol reduced with respect to the control group” value came out at 58%. Also, the Plasma cholesterol levels is recorded as 14.4 mmol/L in experiment [2] (setting [4]), 13.2 mmol/L in experiment [2] (setting [5]), 12.6 mmol/L in experiment [2] (setting [6]) and 10.9 mmol/L in experiment [2] (setting [7]). Moreover, the “Plasma cholesterol reduction relative to control” value was 11.6% in experiment [2] (t = 3 (weeks), 0.1% in diet); 19.7% in experiment [2] (t = 6 (weeks), 0.2% in diet); 34.8% in experiment [2] (t = 9 (weeks), 0.4% in diet).

Regarding `CCCCCCCCCCCCC/C=C/[C@@H](O)[C@@H](N)CO` [SPHINGOSINE, sphingosine], the Plasma triglyceride levels was found to be 2.3 mmol/L in experiment [1] (setting [4]), 2.2 mmol/L in experiment [1] (setting [5]), 1.4 mmol/L in experiment [1] (setting [6]) and 1.0 mmol/L in experiment [1] (setting [7]). Also, the “Plasma triglyceride reduction relative to control” value is reported as −0.6% in experiment [1] (t = 3 (weeks), 0.1% in diet); 32.5% in experiment [1] (t = 6 (weeks), 0.2% in diet); 54.3% in experiment [1] (t = 9 (weeks), 0.4% in diet). Further, the Plasma cholesterol levels turned out to be 14.6 mmol/L in experiment [2] (setting [4]), 15.3 mmol/L in experiment [2] (setting [5]), 11.0 mmol/L in experiment [2] (setting [6]) and 9.5 mmol/L in experiment [2] (setting [7]). Besides, the “Plasma cholesterol reduction relative to control” value in experiment [2] (t = 3 (weeks), 0.1% in diet) is recorded as −2.1%; in experiment [2] (t = 6 (weeks), 0.2% in diet) it was 29.7%; in experiment [2] (t = 9 (weeks), 0.4% in diet), 43.3%.

Regarding glucosyl ceramide [CEREBROSIDE], the Plasma triglyceride levels is reported as 2.2 mmol/L in experiment [1] (setting [4]), 2.2 mmol/L in experiment [1] (setting [5]), 1.2 mmol/L in experiment [1] (setting [6]) and 1.8 mmol/L in experiment [1] (setting [7]). Moreover, the “Plasma triglyceride reduction relative to control” value in experiment [1] (t = 3 (weeks), 0.1% in diet) is −1.2%; in experiment [1] (t = 6 (weeks), 0.2% in diet), 42.0%; in experiment [1] (t = 9 (weeks), 0.4% in diet), 21.9%. In addition, the Plasma cholesterol levels in experiment [2] (setting [4]) came to 14.8 mmol/L; in experiment [2] (setting [5]), 14.2 mmol/L; in experiment [2] (setting [6]), 11.7 mmol/L; in experiment [2] (setting [7]), 12.8 mmol/L. Besides, the “Plasma cholesterol reduction relative to control” value in experiment [2] (t = 3 (weeks), 0.1% in diet) worked out at 5.2%; in experiment [2] (t = 6 (weeks), 0.2% in diet) it was 25.6%; in experiment [2] (t = 9 (weeks), 0.4% in diet) it was 23.4%.

As to sphingomyelin, the Plasma triglyceride levels was found to be 2.5 mmol/L in experiment [1] (setting [4]), 1.7 mmol/L in experiment [1] (setting [5]), 1.2 mmol/L in experiment [1] (setting [6]) and 0.9 mmol/L in experiment [1] (setting [7]). In addition, the “Plasma triglyceride reduction relative to control” value in experiment [1] (t = 3 (weeks), 0.1% in diet) was determined as 19.9%; in experiment [1] (t = 6 (weeks), 0.2% in diet), 42.7%; in experiment [1] (t = 9 (weeks), 0.4% in diet), 59.5%. The Plasma cholesterol levels is on record as 15.1 mmol/L in experiment [2] (setting [4]), 14.7 mmol/L in experiment [2] (setting [5]), 9.9 mmol/L in experiment [2] (setting [6]) and 8.7 mmol/L in experiment [2] (setting [7]). Besides, the “Plasma cholesterol reduction relative to control” value is 1.9% in experiment [2] (t = 3 (weeks), 0.1% in diet); 36.8% in experiment [2] (t = 6 (weeks), 0.2% in diet); 48.2% in experiment [2] (t = 9 (weeks), 0.4% in diet).

On to `CCCCCCCCCCCCCCC[C@@H](O)[C@@H](N)CO` [SPHINGANINE, sphinganine], for which the Plasma triglyceride levels in experiment [1] (setting [4]) turned out to be 2.3 mmol/L; in experiment [1] (setting [5]), 1.7 mmol/L; in experiment [1] (setting [6]) it was 1.0 mmol/L; in experiment [1] (setting [7]) it was 1.2 mmol/L. Further, the “Plasma triglyceride reduction relative to control” value in experiment [1] (t = 3 (weeks), 0.1% in diet) is 19.2%; in experiment [1] (t = 6 (weeks), 0.2% in diet), 52.9%; in experiment [1] (t = 9 (weeks), 0.4% in diet) it was 44.9%. Besides, the Plasma cholesterol levels was found to be 15.9 mmol/L in experiment [2] (setting [4]), 14.9 mmol/L in experiment [2] (setting [5]), 10.0 mmol/L in experiment [2] (setting [6]) and 11.5 mmol/L in experiment [2] (setting [7]). Further, the “Plasma cholesterol reduction relative to control” value was determined as 0.3% in experiment [2] (t = 3 (weeks), 0.1% in diet); 36.2% in experiment [2] (t = 6 (weeks), 0.2% in diet); 31.2% in experiment [2] (t = 9 (weeks), 0.4% in diet).

The record behind these values is patent US7968529B2, “Use of sphingolipids for reducing high plasma cholesterol and high triacylglycerol levels” (Nederlandse Organisatie Voor …, priority 2003, dated 2011).
